Measurements taken from the supplement of paper PMC11208160.

Assay: recombinant UMI read abundance after kanamycin selection (control-corrected) (log10(CPM+1)); higher = more efficient recombination; extreme values may be limits of the assay; sequences stand for … in AGTGCAGAGAAAATCGGCCAGTTTTCTCTGCCTGCAGTCCGCATGCCGTGGGACCCCTTGGGTTCTAACCTGTTGCCTAGATTTATGCAGCGGACTGCCTTTCTCCCAAAGTGATAAACCGG…AGGTTGGTTTCACT; site = the 11-nt donor
Outline: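 In Escherichia coli, a pool of donor and donor-binding-loop pairs, each with a 12-nt UMI, was tested for the IS621 bridge recombinase. Plating was on IPTG (0.07 mM) plus kanamycin, or without selection, in two replicates. Recombinant UMIs were amplified by PCR across the donor–target junction and sequenced, and counts were reported as log10(CPM+1) after averaging and control-derived scaling.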
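Note: IS621 bridge recombinase in Escherichia coli cells against a fixed T5 target plasmid.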

| Sequence | recombinant UMI read abundance (log10) |
| --- | --- |
| TGGAAAACATGGACCGGTTTTCCCGGTAATCCGTATTTGCA (site AGGAAGACTTG) | 0.218 |
| TGGAAAACATGGACCGGTTTTCCCGGTAATCCGTATTTGCA (site TGGAAAACTTG) | 2.24 |
| TGGACAGCATGGACCGGTTTTCCCGGTAATCCGTATTTGCT (site TGGACAGCTAG) | 2.26 |
| TGGACATCATGGACCGGTTTTCCCGGTAATCCGTATTTGCT (site AGGACATCTAG) | 1.44 |
| TGGACATCATGGACCGGTTTTCCCGGTAATCCGTATTTGCT (site CGGACATCTAG) | 2.04 |
| TGGACATCATGGACCGGTTTTCCCGGTAATCCGTATTTGCT (site GGGACATCTAG) | 0.348 |
| TGGACATCATGGACCGGTTTTCCCGGTAATCCGTATTTGCT (site TGGACATCTAG) | 1.69 |
| TGGACCACATGGACCGGTTTTCCCGGTAATCCGTATTTGAT (site TGGACCACTAT) | 0.721 |
| TGGAGCGCATGGACCGGTTTTCCCGGTAATCCGTATTTGGG (site TGGAGCGCTCC) | 0.0132 |
| TGGAGTTCATGGACCGGTTTTCCCGGTAATCCGTATTTGTA (site TGGAGTTCTTA) | 1.31 |
| TGGATTTCATGGACCGGTTTTCCCGGTAATCCGTATTTGCA (site TGGATTTCTTG) | 0.673 |
| TGGCATCCATGGACCGGTTTTCCCGGTAATCCGTATTTGTT (site CGGAATCCTAA) | 0 |
| TGGCATCCATGGACCGGTTTTCCCGGTAATCCGTATTTGTT (site TGGCATCCTAA) | 0.165 |
| TGGCCACCATGGACCGGTTTTCCCGGTAATCCGTATTTGTT (site TGGCCACCTAA) | 0.0258 |
| TGGCCAGCATGGACCGGTTTTCCCGGTAATCCGTATTTGGC (site TGGCCAGCTGC) | 0 |
| TGGCCAGCATGGACCGGTTTTCCCGGTAATCCGTATTTGGC (site TGGCCCGCTGC) | 0 |
| TGGCCAGCATGGACCGGTTTTCCCGGTAATCCGTATTTGGC (site TGGCCGGCTGC) | 0 |
| TGGCCAGCATGGACCGGTTTTCCCGGTAATCCGTATTTGGC (site TGGCCTGCTGC) | 0.017 |
| TGGCCGACATGGACCGGTTTTCCCGGTAATCCGTATTTGGC (site TGGCCGACTGC) | 0 |
| TGGCCGACATGGACCGGTTTTCCCGGTAATCCGTATTTGGC (site TGGCCGCCTGC) | 0 |
| TGGCCGACATGGACCGGTTTTCCCGGTAATCCGTATTTGGC (site TGGCCGGCTGC) | 0.00648 |
| TGGCCGACATGGACCGGTTTTCCCGGTAATCCGTATTTGGC (site TGGCCGTCTGC) | 0 |
| TGGCCGGCATGGACCGGTTTTCCCGGTAATCCGTATTTGAC (site TGGCCGGCTGA) | 0.00628 |
| TGGCCGGCATGGACCGGTTTTCCCGGTAATCCGTATTTGAC (site TGGCCGGCTGC) | 0 |
| TGGCCGGCATGGACCGGTTTTCCCGGTAATCCGTATTTGAC (site TGGCCGGCTGG) | 0 |

| Sequence | recombinant UMI read abundance (log10) |
| --- | --- |
| TGGCCGGCATGGACCGGTTTTCCCGGTAATCCGTATTTGAC (site TGGCCGGCTGT) | 1.4 |
| TGGCCGGCATGGACCGGTTTTCCCGGTAATCCGTATTTGGT (site TGGCCGGCTAC) | 0.0121 |
| TGGCCGGCATGGACCGGTTTTCCCGGTAATCCGTATTTGGT (site TGGCCGGCTCC) | 0.022 |
| TGGCCGGCATGGACCGGTTTTCCCGGTAATCCGTATTTGGT (site TGGCCGGCTGC) | 0 |
| TGGCCGGCATGGACCGGTTTTCCCGGTAATCCGTATTTGGT (site TGGCCGGCTTC) | 0.0272 |
| TGGCTCACATGGACCGGTTTTCCCGGTAATCCGTATTTGTG (site TGGCTCACTCA) | 0.0236 |
| TGGCTTCCATGGACCGGTTTTCCCGGTAATCCGTATTTGCT (site TGGCTTCCTAG) | 0 |
| TGGGAAACATGGACCGGTTTTCCCGGTAATCCGTATTTGGT (site TGGGAAACTAC) | 1.29 |
| TGGGCCACATGGACCGGTTTTCCCGGTAATCCGTATTTGCA (site TGGGCCACTTG) | 1.45 |
| TGGGCGGCATGGACCGGTTTTCCCGGTAATCCGTATTTGGC (site TGGACGGCTGC) | 1.49 |
| TGGGCGGCATGGACCGGTTTTCCCGGTAATCCGTATTTGGC (site TGGCCGGCTGC) | 0 |
| TGGGCGGCATGGACCGGTTTTCCCGGTAATCCGTATTTGGC (site TGGGCGGCTGC) | 2.09 |
| TGGGCGGCATGGACCGGTTTTCCCGGTAATCCGTATTTGGC (site TGGTCGGCTGC) | 0 |
| TGGGCTACATGGACCGGTTTTCCCGGTAATCCGTATTTGCA (site TGGGCTACTTG) | 1.79 |
| TGGGTAACATGGACCGGTTTTCCCGGTAATCCGTATTTGAC (site TGGGTAACTGT) | 1.61 |
| TGGGTAGCATGGACCGGTTTTCCCGGTAATCCGTATTTGGG (site TGGGTAGCTCC) | 0 |
| TGGGTGACATGGACCGGTTTTCCCGGTAATCCGTATTTGAG (site TGGGTGACTCT) | 0.83 |
| TGGTAACCATGGACCGGTTTTCCCGGTAATCCGTATTTGTG (site TGGTAACCTCA) | 0.0137 |
| TGGTCAACATGGACCGGTTTTCCCGGTAATCCGTATTTGCG (site TGGTCAACTCG) | 0.0115 |
| TGGTCCTCATGGACCGGTTTTCCCGGTAATCCGTATTTGTC (site TGGTCCTCTGA) | 1.33 |
| TGGTCGGCATGGACCGGTTTTCCCGGTAATCCGTATTTGGC (site TGGACGGCTGC) | 0 |
| TGGTCGGCATGGACCGGTTTTCCCGGTAATCCGTATTTGGC (site TGGCCGGCTGC) | 0.682 |
| TGGTCGGCATGGACCGGTTTTCCCGGTAATCCGTATTTGGC (site TGGGCGGCTGC) | 0.00726 |
| TGGTCGGCATGGACCGGTTTTCCCGGTAATCCGTATTTGGC (site TGGTCGGCTGC) | 0.268 |
| TGGTCTGCATGGACCGGTTTTCCCGGTAATCCGTATTTGCG (site ACCGTCTCTGA) | 0 |

| Sequence | recombinant UMI read abundance (log10) |
| --- | --- |
| TGGTGTACATGGACCGGTTTTCCCGGTAATCCGTATTTGAA (site TGGTGTACTTT) | 0.131 |
| TGGTTTCCATGGACCGGTTTTCCCGGTAATCCGTATTTGCC (site TGGTTTCCTGG) | 0 |
| TGTAAAGCATGGACCGGTTTTCCCGGTAATCCGTATTTGAC (site TGTAAAGCTGT) | 0.0139 |
| TGTACAACATGGACCGGTTTTCCCGGTAATCCGTATTTGCT (site TGTACAACTAG) | 0.836 |
| TGTACCCCATGGACCGGTTTTCCCGGTAATCCGTATTTGTA (site TGTACCCCTTA) | 0.292 |
| TGTACCCCATGGACCGGTTTTCCCGGTAATCCGTATTTGTA (site TGTCCCCCTTA) | 0.253 |
| TGTACCCCATGGACCGGTTTTCCCGGTAATCCGTATTTGTA (site TGTGCCCCTTA) | 0 |
| TGTACCCCATGGACCGGTTTTCCCGGTAATCCGTATTTGTA (site TGTTCCCCTTA) | 0.00713 |
| TGTACCGCATGGACCGGTTTTCCCGGTAATCCGTATTTGGG (site TGTACCGCTCC) | 0.0251 |
| TGTACCTCATGGACCGGTTTTCCCGGTAATCCGTATTTGGG (site TGTACCTCTCC) | 0.0503 |
| TGTACCTCATGGACCGGTTTTCCCGGTAATCCGTATTTGGT (site TGTACCTCTAC) | 0.0562 |
| TGTACGTCATGGACCGGTTTTCCCGGTAATCCGTATTTGTT (site AGTACGTCTAA) | 0.00241 |
| TGTACGTCATGGACCGGTTTTCCCGGTAATCCGTATTTGTT (site CGTACGTCTAA) | 0.031 |
| TGTACGTCATGGACCGGTTTTCCCGGTAATCCGTATTTGTT (site GGTACGTCTAA) | 0.031 |
| TGTACGTCATGGACCGGTTTTCCCGGTAATCCGTATTTGTT (site TGTACGTCTAA) | 0.00887 |
| TGTACTACATGGACCGGTTTTCCCGGTAATCCGTATTTGGT (site TGTACTACTAC) | 0.00344 |
| TGTAGAACATGGACCGGTTTTCCCGGTAATCCGTATTTGCC (site TGTAGAACTGG) | 0.754 |
| TGTAGAACATGGACCGGTTTTCCCGGTAATCCGTATTTGGG (site TGTAGAACTCC) | 0.00647 |
| TGTAGTACATGGACCGGTTTTCCCGGTAATCCGTATTTGAC (site TGTAGTACTGT) | 0.509 |
| TGTATCGCATGGACCGGTTTTCCCGGTAATCCGTATTTGCT (site TGTATCGCTAG) | 1.57 |
| TGTATTTCATGGACCGGTTTTCCCGGTAATCCGTATTTGGG (site TGTATTTCTCC) | 0.402 |
| TGTCGTCCATGGACCGGTTTTCCCGGTAATCCGTATTTGCA (site TGTCGTCCTTG) | 0.616 |
| TGTCTTCCATGGACCGGTTTTCCCGGTAATCCGTATTTGTC (site TGTCTTCCTGA) | 0 |
| TGTGATTCATGGACCGGTTTTCCCGGTAATCCGTATTTGTT (site TGTGATTCTAA) | 0 |
| TGTTAACCATGGACCGGTTTTCCCGGTAATCCGTATTTGTC (site TGTTAACCTGA) | 0 |
